Source: patent US9458137B2, “Substituted indol-5-ol derivatives and their therapeutical applications” (NantBioScience, Inc., priority 2012, dated 2016)

Key:
Assay in all cases: Kinase panel activity
Assay type in all cases: biochemical
Settings in all cases: 0.1 μM, ATP Km
AMPKα2(h) = AMPKα2(h) (Homo sapiens, UniProt P54646)
Protocol: (§1) The effect of NTW-3475 on kinase activity was tested for a wide range of kinases and is shown in Table 2: Summary Sheet, Activity % ATP Concentration: Km

Arg(m) = Arg(m) (Mus musculus, UniProt Q4JIM5)
Protocol: as §1

Aurora-A(h) = molecular target: T1, Aurora-A(h) (Homo sapiens, UniProt O14965)
T1 construct: purchased Millipore (KinaseProfiler service)
T1 sequence (O14965 whole entry): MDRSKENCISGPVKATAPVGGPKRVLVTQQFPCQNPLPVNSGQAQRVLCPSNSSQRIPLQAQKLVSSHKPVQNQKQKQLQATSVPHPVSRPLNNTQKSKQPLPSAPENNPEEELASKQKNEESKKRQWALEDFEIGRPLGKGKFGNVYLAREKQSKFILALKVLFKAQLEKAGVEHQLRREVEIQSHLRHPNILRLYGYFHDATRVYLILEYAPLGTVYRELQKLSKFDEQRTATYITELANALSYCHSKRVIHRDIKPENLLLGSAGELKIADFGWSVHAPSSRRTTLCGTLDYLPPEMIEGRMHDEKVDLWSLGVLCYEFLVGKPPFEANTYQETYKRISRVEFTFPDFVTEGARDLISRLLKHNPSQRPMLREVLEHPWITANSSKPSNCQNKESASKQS
Protocol: as §1

BTK(h) = BTK(h) (Homo sapiens, UniProt Q06187)
Sequence of BTK(h) (Q06187 whole entry): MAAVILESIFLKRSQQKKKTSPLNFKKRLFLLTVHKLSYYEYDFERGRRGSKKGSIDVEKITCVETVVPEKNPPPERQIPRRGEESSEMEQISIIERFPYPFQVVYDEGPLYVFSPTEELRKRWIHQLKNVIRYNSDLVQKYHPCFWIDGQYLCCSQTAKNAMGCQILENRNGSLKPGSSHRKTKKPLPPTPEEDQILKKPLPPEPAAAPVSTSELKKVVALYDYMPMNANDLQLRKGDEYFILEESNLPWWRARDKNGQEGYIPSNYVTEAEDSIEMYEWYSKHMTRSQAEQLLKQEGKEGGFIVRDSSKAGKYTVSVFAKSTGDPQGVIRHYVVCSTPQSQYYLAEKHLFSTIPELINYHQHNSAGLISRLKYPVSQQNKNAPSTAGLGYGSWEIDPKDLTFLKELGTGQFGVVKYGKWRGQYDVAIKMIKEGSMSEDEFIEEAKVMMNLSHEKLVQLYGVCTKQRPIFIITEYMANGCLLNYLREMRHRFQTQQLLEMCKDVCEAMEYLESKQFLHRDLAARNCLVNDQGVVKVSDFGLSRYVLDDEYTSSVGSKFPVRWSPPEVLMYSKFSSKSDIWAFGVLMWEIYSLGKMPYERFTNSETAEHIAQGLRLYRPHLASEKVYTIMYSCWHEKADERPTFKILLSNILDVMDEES
Protocol: as §1

CDK1/cyclinB(h) = CDK1/cyclinB(h) (Homo sapiens, UniProt P06493)
Protocol: as §1

CSK(h) = CSK(h) (Homo sapiens, UniProt P41240)
Protocol: as §1

CaMKIIβ(h) = CaMKIIβ(h) (Homo sapiens, UniProt Q13554)
Protocol: as §1

DCAMKL2(h) = DCAMKL2(h) (Homo sapiens, UniProt Q8N568)
Protocol: as §1

DMPK(h) = DMPK(h) (Homo sapiens, UniProt Q09013)
Protocol: as §1

EGFR(L858R)(h) = molecular target: T2, EGFR(L858R)(h) (Homo sapiens, UniProt P00533, L858R)
T2 construct: purchased Millipore (KinaseProfiler service)
Protocol: as §1

EphB4(h) = molecular target: T3, EphB4(h) (Homo sapiens, UniProt P54760)
T3 construct: purchased Millipore (KinaseProfiler service)
T3 sequence (P54760 16-987): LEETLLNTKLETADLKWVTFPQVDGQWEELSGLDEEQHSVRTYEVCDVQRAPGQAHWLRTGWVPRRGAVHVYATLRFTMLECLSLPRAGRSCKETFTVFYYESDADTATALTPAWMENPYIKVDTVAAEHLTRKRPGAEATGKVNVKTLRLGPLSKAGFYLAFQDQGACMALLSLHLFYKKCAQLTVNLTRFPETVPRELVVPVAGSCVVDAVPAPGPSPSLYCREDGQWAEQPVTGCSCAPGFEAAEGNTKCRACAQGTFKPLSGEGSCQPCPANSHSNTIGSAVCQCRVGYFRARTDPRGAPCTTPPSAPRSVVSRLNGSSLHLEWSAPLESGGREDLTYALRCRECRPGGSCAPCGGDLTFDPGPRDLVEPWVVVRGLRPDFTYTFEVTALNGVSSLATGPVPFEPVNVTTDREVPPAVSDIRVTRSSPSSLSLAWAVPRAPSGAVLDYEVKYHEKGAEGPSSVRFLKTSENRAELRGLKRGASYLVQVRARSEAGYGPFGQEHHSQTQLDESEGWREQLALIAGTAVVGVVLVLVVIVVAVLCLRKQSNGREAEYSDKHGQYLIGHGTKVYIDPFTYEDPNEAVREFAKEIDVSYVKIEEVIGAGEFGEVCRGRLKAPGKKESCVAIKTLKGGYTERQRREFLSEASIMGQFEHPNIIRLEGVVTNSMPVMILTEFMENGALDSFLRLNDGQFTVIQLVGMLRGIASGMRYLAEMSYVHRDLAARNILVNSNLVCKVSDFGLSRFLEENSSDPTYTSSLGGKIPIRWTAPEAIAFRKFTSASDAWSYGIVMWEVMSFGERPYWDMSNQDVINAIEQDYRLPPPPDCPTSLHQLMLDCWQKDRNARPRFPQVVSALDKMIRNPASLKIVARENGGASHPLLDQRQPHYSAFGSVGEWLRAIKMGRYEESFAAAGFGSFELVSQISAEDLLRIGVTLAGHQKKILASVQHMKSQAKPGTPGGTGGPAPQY
Protocol: as §1

Fyn(h) = Fyn(h) (Homo sapiens, UniProt P06241)
Protocol: as §1

GRK5(h) = GRK5(h) (Homo sapiens, UniProt P34947)
Protocol: as §1

Hck(h) = Hck(h) (Homo sapiens, UniProt P08631)
Protocol: as §1

IRAK1(h) = IRAK1(h) (Homo sapiens, UniProt P51617)
Protocol: as §1

JNK2α2(h) = JNK2α2(h) (Homo sapiens, UniProt P45984)
Protocol: as §1

JNK3(h) = JNK3(h) (Homo sapiens, UniProt P53779)
Protocol: as §1

MINK(h) = molecular target: T4, MINK(h) (Homo sapiens, UniProt Q8N4C8)
T4 construct: purchased Millipore (KinaseProfiler service)
Protocol: as §1

Mer(h) = molecular target: T5, Mer(h) (Homo sapiens, UniProt Q12866)
T5 construct: purchased Millipore (KinaseProfiler service)
Protocol: as §1

Met(D1246H)(h) = molecular target: T6, Met(D1246H)(h) (Homo sapiens, UniProt P08581, D1228H)
T6 construct: purchased Millipore (KinaseProfiler service)
Protocol: as §1

Met(M1268T)(h) = molecular target: T7, Met(M1268T)(h) (Homo sapiens, UniProt P08581, M1250T)
T7 construct: purchased Millipore (KinaseProfiler service)
Protocol: as §1

NEK7(h) = NEK7(h) (Homo sapiens, UniProt Q8TDX7)
Protocol: as §1

P1k1(h) = P1k1(h) (Homo sapiens, UniProt P53350)
Protocol: as §1

PAK4(h) = PAK4(h) (Homo sapiens, UniProt O96013)
Protocol: as §1

PDGFRα(V561D)(h) = PDGFRα(V561D)(h) (Homo sapiens, UniProt P16234, V561D)
Protocol: as §1

PKCγ(h) = PKCγ(h) (Homo sapiens, UniProt P05129)
Protocol: as §1

PKCδ(h) = PKCδ(h) (Homo sapiens, UniProt Q05655)
Protocol: as §1

PKCι(h) = PKCι(h) (Homo sapiens, UniProt P41743)
Protocol: as §1

PTK5(h) = molecular target: T8, PTK5(h) (Homo sapiens, UniProt P42685)
T8 construct: purchased Millipore (KinaseProfiler service)
Protocol: as §1

Pyk2(h) = molecular target: T9, Pyk2(h) (Homo sapiens, UniProt Q14289)
T9 construct: purchased Millipore (KinaseProfiler service)
T9 sequence (Q14289 whole entry): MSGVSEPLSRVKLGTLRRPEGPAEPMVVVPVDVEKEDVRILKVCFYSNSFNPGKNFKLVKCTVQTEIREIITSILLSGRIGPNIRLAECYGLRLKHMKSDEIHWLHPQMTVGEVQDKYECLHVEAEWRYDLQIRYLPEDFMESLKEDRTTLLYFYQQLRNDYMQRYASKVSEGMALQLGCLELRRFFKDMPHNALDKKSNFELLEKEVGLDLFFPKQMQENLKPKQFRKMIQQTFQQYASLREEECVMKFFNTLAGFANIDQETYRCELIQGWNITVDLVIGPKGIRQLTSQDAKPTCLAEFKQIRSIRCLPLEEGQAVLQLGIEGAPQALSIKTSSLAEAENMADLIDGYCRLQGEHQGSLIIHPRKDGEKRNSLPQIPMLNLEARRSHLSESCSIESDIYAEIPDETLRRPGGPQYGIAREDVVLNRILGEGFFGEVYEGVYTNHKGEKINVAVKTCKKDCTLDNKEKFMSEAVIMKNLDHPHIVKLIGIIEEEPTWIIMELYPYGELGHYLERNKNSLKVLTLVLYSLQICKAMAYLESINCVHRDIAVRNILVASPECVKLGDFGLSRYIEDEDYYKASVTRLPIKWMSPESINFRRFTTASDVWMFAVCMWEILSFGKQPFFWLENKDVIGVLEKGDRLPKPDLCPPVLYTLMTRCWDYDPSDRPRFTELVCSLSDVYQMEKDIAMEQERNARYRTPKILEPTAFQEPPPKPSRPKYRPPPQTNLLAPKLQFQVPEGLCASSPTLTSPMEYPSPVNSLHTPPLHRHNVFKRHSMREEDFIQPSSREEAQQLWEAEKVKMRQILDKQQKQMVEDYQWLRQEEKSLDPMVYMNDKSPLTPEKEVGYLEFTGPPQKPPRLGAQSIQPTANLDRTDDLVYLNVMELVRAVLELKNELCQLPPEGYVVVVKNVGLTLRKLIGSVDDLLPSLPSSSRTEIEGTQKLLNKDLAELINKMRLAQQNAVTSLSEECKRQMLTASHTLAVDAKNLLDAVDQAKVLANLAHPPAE
Protocol: as §1

SRPK1(h) = molecular target: T10, SRPK1(h) (Homo sapiens, UniProt Q96SB4)
T10 construct: purchased Millipore (KinaseProfiler service)
Protocol: as §1

SRPK2(h) = molecular target: T11, SRPK2(h) (Homo sapiens, UniProt P78362)
T11 construct: purchased Millipore (KinaseProfiler service)
T11 sequence (P78362 whole entry): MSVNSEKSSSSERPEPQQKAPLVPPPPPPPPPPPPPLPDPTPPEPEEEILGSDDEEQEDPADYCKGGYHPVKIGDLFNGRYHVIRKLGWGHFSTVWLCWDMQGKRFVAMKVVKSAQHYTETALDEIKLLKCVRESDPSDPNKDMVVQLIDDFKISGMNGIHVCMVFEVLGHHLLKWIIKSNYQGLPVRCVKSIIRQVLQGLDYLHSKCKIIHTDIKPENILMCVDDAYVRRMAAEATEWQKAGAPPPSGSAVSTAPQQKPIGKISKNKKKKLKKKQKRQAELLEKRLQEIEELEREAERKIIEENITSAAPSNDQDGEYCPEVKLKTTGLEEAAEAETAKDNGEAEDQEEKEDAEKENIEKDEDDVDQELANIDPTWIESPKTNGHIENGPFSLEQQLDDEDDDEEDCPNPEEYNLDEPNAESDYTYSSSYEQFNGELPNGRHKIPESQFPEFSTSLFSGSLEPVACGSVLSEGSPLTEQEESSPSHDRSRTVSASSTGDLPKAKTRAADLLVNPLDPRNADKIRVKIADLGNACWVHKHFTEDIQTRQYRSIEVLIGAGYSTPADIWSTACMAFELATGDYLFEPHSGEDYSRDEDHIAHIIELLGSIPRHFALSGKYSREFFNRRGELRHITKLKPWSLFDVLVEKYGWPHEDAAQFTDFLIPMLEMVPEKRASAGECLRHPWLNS
Protocol: as §1

Src(T341M)(h) = molecular target: T12, Src(T341M)(h) (Homo sapiens, UniProt P12931, T341M)
T12 construct: purchased Millipore (KinaseProfiler service)
Protocol: as §1

TAO2(h) = molecular target: T13, TAO2(h) (Homo sapiens, UniProt Q9UL54)
T13 construct: purchased Millipore (KinaseProfiler service)
T13 sequence (Q9UL54 whole entry): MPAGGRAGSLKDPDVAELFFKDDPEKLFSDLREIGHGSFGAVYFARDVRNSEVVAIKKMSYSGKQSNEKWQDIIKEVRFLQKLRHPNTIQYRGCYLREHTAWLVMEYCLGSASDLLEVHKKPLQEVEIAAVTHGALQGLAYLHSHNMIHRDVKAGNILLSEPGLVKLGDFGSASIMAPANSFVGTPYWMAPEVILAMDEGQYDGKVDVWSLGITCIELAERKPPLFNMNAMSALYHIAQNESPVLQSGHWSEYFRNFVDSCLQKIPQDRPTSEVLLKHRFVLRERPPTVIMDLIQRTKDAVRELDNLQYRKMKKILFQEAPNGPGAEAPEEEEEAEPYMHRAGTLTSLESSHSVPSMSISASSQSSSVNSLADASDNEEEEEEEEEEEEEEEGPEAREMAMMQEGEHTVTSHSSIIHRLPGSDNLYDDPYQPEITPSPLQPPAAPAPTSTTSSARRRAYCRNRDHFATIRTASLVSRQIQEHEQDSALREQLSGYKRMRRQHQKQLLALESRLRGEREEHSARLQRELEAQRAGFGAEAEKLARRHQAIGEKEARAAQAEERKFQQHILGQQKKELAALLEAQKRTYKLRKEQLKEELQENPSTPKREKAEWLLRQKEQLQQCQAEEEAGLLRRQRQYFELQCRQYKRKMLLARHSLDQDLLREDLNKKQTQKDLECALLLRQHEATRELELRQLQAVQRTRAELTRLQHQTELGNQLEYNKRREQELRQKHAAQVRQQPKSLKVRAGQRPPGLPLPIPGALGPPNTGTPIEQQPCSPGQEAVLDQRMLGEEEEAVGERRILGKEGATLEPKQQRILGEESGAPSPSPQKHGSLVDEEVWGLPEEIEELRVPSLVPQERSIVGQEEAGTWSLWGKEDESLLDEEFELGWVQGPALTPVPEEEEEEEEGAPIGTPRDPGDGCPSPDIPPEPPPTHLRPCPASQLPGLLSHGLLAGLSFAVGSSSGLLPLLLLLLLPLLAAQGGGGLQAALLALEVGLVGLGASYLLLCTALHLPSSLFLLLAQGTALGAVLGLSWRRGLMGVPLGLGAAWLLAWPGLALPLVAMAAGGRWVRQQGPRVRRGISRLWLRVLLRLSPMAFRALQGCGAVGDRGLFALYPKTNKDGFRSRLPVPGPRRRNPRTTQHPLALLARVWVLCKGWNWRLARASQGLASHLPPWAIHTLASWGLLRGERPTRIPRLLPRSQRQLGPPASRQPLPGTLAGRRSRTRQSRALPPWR
Protocol: as §1

Tie2(Y897S)(h) = molecular target: T14, Tie2(Y897S)(h) (Homo sapiens, UniProt Q02763, Y897S)
T14 construct: purchased Millipore (KinaseProfiler service)
Protocol: as §1

TrkA(h) = molecular target: T15, TrkA(h) (Homo sapiens, UniProt P04629)
T15 construct: purchased Millipore (KinaseProfiler service)
Protocol: as §1

ZAP-70(h) = ZAP-70(h) (Homo sapiens, UniProt P43403)
Protocol: as §1

cKit(D816V)(h) = cKit(D816V)(h) (Homo sapiens, UniProt P10721, D816V)
Protocol: as §1

p70S6K(h) = p70S6K(h) (Homo sapiens, UniProt P23443)
Protocol: as §1

## Cc1cc2c(F)c(Oc3nc(Nc4cc(C5CC5)[nH]n4)cc(N4CCN(C)CC4)n3)cc(F)c2[nH]1 [NTW-3475]
AMPKα2(h)
  Activity %: 5%
Arg(m)
  Activity %: −2%
Aurora-A(h)
  Activity %: 7%
BTK(h)
  Activity %: 37%
CDK1/cyclinB(h)
  Activity %: 81%
CSK(h)
  Activity %: 75%
CaMKIIβ(h)
  Activity %: 99%
DCAMKL2(h)
  Activity %: 87%
DMPK(h)
  Activity %: 102%
EGFR(L858R)(h)
  Activity %: 72%
EphB4(h)
  Activity %: 14%
Fyn(h)
  Activity %: 1%
GRK5(h)
  Activity %: 100%
Hck(h)
  Activity %: 18%
IRAK1(h)
  Activity %: 96%
JNK2α2(h)
  Activity %: 107%
JNK3(h)
  Activity %: 111%
MINK(h)
  Activity %: 75%
Mer(h)
  Activity %: 2%
Met(D1246H)(h)
  Activity %: 18%
Met(M1268T)(h)
  Activity %: 22%
NEK7(h)
  Activity %: 98%
P1k1(h)
  Activity %: 107%
PAK4(h)
  Activity %: 70%
PDGFRα(V561D)(h)
  Activity %: 8%
PKCγ(h)
  Activity %: 102%
PKCδ(h)
  Activity %: 90%
PKCι(h)
  Activity %: 105%
PTK5(h)
  Activity %: 17%
Pyk2(h)
  Activity %: 59%
SRPK1(h)
  Activity %: 96%
SRPK2(h)
  Activity %: 99%
Src(T341M)(h)
  Activity %: 1%
TAO2(h)
  Activity %: 6%
Tie2(Y897S)(h)
  Activity %: 3%
TrkA(h)
  Activity %: 2%
ZAP-70(h)
  Activity %: 110%
cKit(D816V)(h)
  Activity %: 63%
p70S6K(h)
  Activity %: 84%
